For 29 compounds, IC50, Ratio IC50 and inhibition results are on record in ChEMBL document CHEMBL3217610, “SAR investigations on a novel class of gamma-secretase modulators based on a unique scaffold” (Medchemcomm, 2013).

In assay [1] the target is Gamma-secretase. Kind of assay: Modulation of gamma-secretase (unknown origin) assessed as inhibition of amyloid beta 42 production. It counts as protein-complex assay, Homo sapiens.
Assay [2] concerns the target T1, Gamma-secretase (Homo sapiens) (UniProt Q96BI3+Q9NZ42+Q8WW43+P49768+Q92542+P49810). Kind of assay: Selectivity ratio of IC50 for modulation of gamma-secretase (unknown origin) assessed as inhibition of amyloid beta 40 production to IC50 for modulation of gamma-secretase (unknown origin) assessed as inhibition of amyloid beta 42 production. Type of assay: protein-complex assay.

The target in assay [3] is T1, Gamma-secretase (Homo sapiens). Briefly: Modulation of gamma-secretase (unknown origin) assessed as inhibition of amyloid beta 40 production at 20 uM relative to control. It counts as protein-complex assay.
The target in assay [4] is Gamma-secretase. Briefly: Modulation of gamma-secretase (unknown origin) assessed as inhibition of amyloid beta 40 production. Type of assay: protein-complex assay, Homo sapiens.

Each structure is given as a SMILES string.

What is called IC50 is the concentration needed to halve the response being measured. For orientation: inhibition means the relative decrease from the control value, in per cent. For `CC(=O)O[C@@H]([C@@H]1C[C@@H](C)[C@H]2[C@H](O1)[C@H](O)[C@@]1(C)[C@@H]3CC[C@H]4C(C)(C)[C@@H](OC(=O)NC5COC5)CC[C@@]45C[C@@]35CC[C@]21C)C(C)(C)O`, the IC50 in assay [1] was determined as 450 nM. Also, the Ratio IC50 in assay [2] was over 44. Also, the inhibition in assay [3] stood at 40%.
For `CC(=O)O[C@@H]([C@@H]1C[C@@H](C)[C@H]2[C@H](O1)[C@H](O)[C@@]1(C)[C@@H]3CC[C@H]4C(C)(C)[C@@H](OC(=O)NC5CN6CCC5CC6)CC[C@@]45C[C@@]35CC[C@]21C)C(C)(C)O` (some centres undefined), the half-maximal inhibitory concentration (IC50) in assay [1] worked out at 84 nM; in assay [4] it was 2.4 µM. Moreover, in assay [2], the Ratio IC50 is 29.
`CC(=O)O[C@@H]([C@@H]1C[C@@H](C)[C@H]2[C@H](O1)[C@H](O)[C@@]1(C)[C@@H]3CC[C@H]4C(C)(C)[C@@H](OC(=O)NCCN5CCOCC5)CC[C@@]45C[C@@]35CC[C@]21C)C(C)(C)O`: the IC50 in assay [1] was determined as 230 nM. In addition, the Ratio IC50 in assay [2] was over 86. In assay [3], the inhibition worked out at 31%.
For `CC(=O)O[C@@H]([C@@H]1C[C@@H](C)[C@H]2[C@H](O1)[C@H](O)[C@@]1(C)[C@@H]3CC[C@H]4C(C)(C)[C@@H](OC(=O)C5CCN5)CC[C@@]45C[C@@]35CC[C@]21C)C(C)(C)O` (mixture of isomers), in assay [1], the IC50 came out at 220 nM.
Take `CC(=O)O[C@@H]([C@@H]1C[C@@H](C)[C@H]2[C@H](O1)[C@H](O)[C@@]1(C)[C@@H]3CC[C@H]4C(C)(C)[C@@H](OC(=O)N5CCOCC5)CC[C@@]45C[C@@]35CC[C@]21C)C(C)(C)O`: the values for the IC50 in assay [1] and in assay [4] were 220 nM and 13.6 µM, respectively. In addition, the Ratio IC50 in assay [2] was 62.
As to `CC(=O)O[C@@H]([C@@H]1C[C@@H](C)[C@H]2[C@H](O1)[C@H](O)[C@@]1(C)[C@@H]3CC[C@H]4C(C)(C)[C@@H](OC(=O)CCC(=O)O)CC[C@@]45C[C@@]35CC[C@]21C)C(C)(C)O`, the 50% inhibitory concentration (IC50) in assay [1] is 1600 nM; in assay [4] it was 18 µM. The Ratio IC50 in assay [2] was determined as 11.
On to `CC(=O)O[C@@H]([C@@H]1C[C@@H](C)[C@H]2[C@H](O1)[C@H](O)[C@@]1(C)[C@@H]3CC[C@H]4C(C)(C)[C@@H](OC(=O)c5ccncc5)CC[C@@]45C[C@@]35CC[C@]21C)C(C)(C)O`, for which the IC50 in assay [1] is 1000 nM.
For `CC(=O)O[C@@H]([C@@H]1C[C@@H](C)[C@H]2[C@H](O1)[C@H](O)[C@@]1(C)[C@@H]3CC[C@H]4C(C)(C)[C@@H](OC(=O)NCc5ccccn5)CC[C@@]45C[C@@]35CC[C@]21C)C(C)(C)O`, in assay [1], the IC50 was 560 nM. Besides, in assay [2], the Ratio IC50 is over 35. For the same compound, the inhibition in assay [3] came out at 32%.
On to `CC(=O)O[C@@H]([C@@H]1C[C@@H](C)[C@H]2[C@H](O1)[C@H](O)[C@@]1(C)[C@@H]3CC[C@H]4C(C)(C)[C@@H](OC(=O)N5CCC5)CC[C@@]45C[C@@]35CC[C@]21C)C(C)(C)O`, for which the IC50 is 340 nM in assay [1] and 14.7 µM in assay [4]. Besides, the Ratio IC50 in assay [2] was found to be 43.
With `CC(=O)O[C@@H]([C@@H]1C[C@@H](C)[C@H]2[C@H](O1)C(=O)[C@@]1(C)[C@@H]3CC[C@H]4C(C)(C)[C@@H](O[C@@H]5OC[C@@H](O)[C@H](O)[C@H]5O)CC[C@@]45C[C@@]35CC[C@]21C)C(C)(C)O`, the figures for the IC50 in assay [1] and in assay [4] were 600 nM and 9.8 µM, respectively.
With `CC(=O)O[C@@H]([C@@H]1C[C@@H](C)[C@H]2[C@H](O1)[C@H](O)[C@@]1(C)[C@@H]3CC[C@H]4C(C)(C)[C@@H](OC(=O)NC5CCC5)CC[C@@]45C[C@@]35CC[C@]21C)C(C)(C)O`, the IC50 in assay [1] was determined as 470 nM. Moreover, the Ratio IC50 in assay [2] was over 42. Moreover, the inhibition in assay [3] turned out to be 26%.
Turning to `C[C@@H]1C[C@@H]([C@H](O)C(C)(C)O)O[C@H]2[C@H]1[C@@]1(C)CC[C@@]34C[C@@]35CC[C@H](O[C@@H]3OC[C@@H](O)[C@H](O)[C@H]3O)C(C)(C)[C@@H]5CC[C@H]4[C@]1(C)[C@H]2O`, the IC50 in assay [1] worked out at 3100 nM.
`CC(=O)O[C@@H]([C@@H]1C[C@@H](C)[C@H]2[C@H](O1)[C@H](O)[C@@]1(C)[C@@H]3CC[C@H]4C(C)(C)[C@@H](OC(=O)C5CCCO5)CC[C@@]45C[C@@]35CC[C@]21C)C(C)(C)O` (mixture of isomers): the 50% inhibitory concentration (IC50) in assay [1] was determined as 860 nM. In addition, the Ratio IC50 in assay [2] is over 23. Further, the inhibition in assay [3] was 44%.
Turning to `CC(=O)O[C@@H]([C@@H]1C[C@@H](C)[C@H]2[C@H](O1)[C@H](O)[C@@]1(C)[C@@H]3CC[C@H]4C(C)(C)[C@@H](OC(N)=O)CC[C@@]45C[C@@]35CC[C@]21C)C(C)(C)O`, the IC50 in assay [1] was 200 nM. In assay [2], the Ratio IC50 is over 100. In addition, in assay [3], the inhibition worked out at 27%.
With `CC(=O)O[C@@H]([C@@H]1C[C@@H](C)[C@H]2[C@H](O1)[C@H](O)[C@@]1(C)[C@@H]3CC[C@H]4C(C)(C)[C@@H](OC(=O)C5CNC5)CC[C@@]45C[C@@]35CC[C@]21C)C(C)(C)O`, the IC50 was 55 nM in assay [1] and 1.3 µM in assay [4]. Moreover, the Ratio IC50 in assay [2] was 24.
Consider `CC(=O)O[C@@H]([C@@H]1C[C@@H](C)[C@H]2[C@H](O1)[C@H](O)[C@@]1(C)[C@@H]3CC[C@H]4C(C)(C)[C@@H](OC(=O)NCC(=O)O)CC[C@@]45C[C@@]35CC[C@]21C)C(C)(C)O`, for which the IC50 in assay [1] was 2500 nM. Besides, the Ratio IC50 in assay [2] is over 8. In addition, the inhibition in assay [3] was 37%.
For the compound `CC(=O)O[C@@H]([C@@H]1C[C@@H](C)[C@H]2[C@H](O1)[C@H](O)[C@@]1(C)[C@@H]3CC[C@H]4C(C)(C)[C@@H](OC(=O)C5(C)COC5)CC[C@@]45C[C@@]35CC[C@]21C)C(C)(C)O`, the IC50 in assay [1] was determined as 590 nM. Besides, the Ratio IC50 in assay [2] was over 33. The inhibition in assay [3] was 41%.
As to `CC(=O)O[C@@H]([C@@H]1C[C@@H](C)[C@H]2[C@H](O1)[C@H](O)[C@@]1(C)[C@@H]3CC[C@H]4C(C)(C)[C@@H](OC(=O)c5ccccn5)CC[C@@]45C[C@@]35CC[C@]21C)C(C)(C)O`, the IC50 in assay [1] is 520 nM; in assay [4] it was 13 µM. In assay [2], the Ratio IC50 worked out at 25.
Take `CC(=O)O[C@@H]([C@@H]1C[C@@H](C)[C@H]2[C@H](O1)[C@H](O)[C@@]1(C)[C@@H]3CC[C@H]4C(C)(C)[C@@H](O)CC[C@@]45C[C@@]35CC[C@]21C)C(C)(C)O`: the IC50 in assay [1] amounted to 600 nM; in assay [4], 14 µM.
Consider `CC(=O)O[C@@H]([C@@H]1C[C@@H](C)[C@H]2[C@H](O1)[C@H](O)[C@@]1(C)[C@@H]3CC[C@H]4C(C)(C)[C@@H](O[C@@H]5OC[C@@H](O)[C@H](O)[C@H]5O)CC[C@@]45C[C@@]35CC[C@]21C)C(C)(C)O`, for which the IC50 in assay [1] stood at 60 nM; in assay [4] it was 1 µM.
Turning to `CC(=O)OC(C)(C)[C@H]1O[C@@]23O[C@H]1C[C@@H](C)C2[C@@]1(C)CC[C@@]24C[C@@]25CC[C@H](O[C@@H]2OC[C@@H](O)[C@H](O)[C@H]2O)C(C)(C)[C@@H]5CC[C@H]4[C@]1(C)[C@H]3O` (some centres undefined), the IC50 in assay [1] worked out at 3000 nM.
Regarding `CC(=O)O[C@@H]([C@@H]1C[C@@H](C)[C@H]2[C@H](O1)[C@H](O)[C@@]1(C)[C@@H]3CC[C@H]4C(C)(C)[C@@H](OC(=O)CN)CC[C@@]45C[C@@]35CC[C@]21C)C(C)(C)O`, the IC50 in assay [1] amounted to 95 nM.
`CC(=O)O[C@@H]([C@@H]1C[C@@H](C)[C@H]2[C@H](O1)[C@H](O)[C@@]1(C)[C@@H]3CC[C@H]4C(C)(C)[C@@H](OC(=O)[C@@H]5CCCN5)CC[C@@]45C[C@@]35CC[C@]21C)C(C)(C)O`: the IC50 in assay [1] worked out at 230 nM; in assay [4], 4.6 µM. Further, the Ratio IC50 in assay [2] came out at 20.
For `CC(=O)O[C@@H]([C@@H]1C[C@@H](C)[C@H]2[C@H](O1)[C@H](O)[C@@]1(C)[C@@H]3CC[C@H]4C(C)(C)[C@@H](OC(=O)Cc5ccccn5)CC[C@@]45C[C@@]35CC[C@]21C)C(C)(C)O` the same measures were 780 nM, 7.2 µM and 9.
The corresponding values for `CC(=O)O[C@@H]([C@@H]1C[C@@H](C)[C@H]2[C@H](O1)[C@H](O)[C@@]1(C)[C@@H]3CC[C@H]4C(C)(C)[C@@H](OC(=O)NC5CNC5)CC[C@@]45C[C@@]35CC[C@]21C)C(C)(C)O` are 47 nM, 0.33 µM and 7.
Turning to `CC(=O)O[C@H]1CC[C@]23C[C@]24CC[C@]2(C)[C@@H]5[C@H](O[C@H]([C@H](OC(C)=O)C(C)(C)O)C[C@H]5C)[C@H](O)[C@@]2(C)[C@@H]4CC[C@H]3C1(C)C`, the IC50 in assay [1] amounted to 760 nM; in assay [4], 12 µM. Besides, the Ratio IC50 in assay [2] is 16.
On to `CC(=O)O[C@@H]([C@@H]1C[C@@H](C)[C@H]2[C@H](O1)[C@H](O)[C@@]1(C)[C@@H]3CC[C@H]4C(C)(C)[C@@H](OC(=O)c5cccnc5)CC[C@@]45C[C@@]35CC[C@]21C)C(C)(C)O`, for which the half-maximal inhibitory concentration (IC50) in assay [1] stood at 260 nM; in assay [4], 14 µM. For the same compound, the Ratio IC50 in assay [2] is 54.
Take `CC(=O)O[C@@H]([C@@H]1C[C@@H](C)[C@H]2[C@H](O1)[C@H](O)[C@@]1(C)[C@@H]3CC[C@H]4C(C)(C)[C@@H](OC(=O)CN(C)C)CC[C@@]45C[C@@]35CC[C@]21C)C(C)(C)O`: the IC50 turned out to be 570 nM in assay [1] and 8.4 µM in assay [4]. In addition, in assay [2], the Ratio IC50 amounted to 15.
In the case of `CC(=O)O[C@@H]([C@@H]1C[C@@H](C)[C@H]2[C@H](O1)[C@H](O)[C@@]1(C)[C@@H]3CC[C@H]4C(C)(C)[C@@H](OC(=O)NCCN)CC[C@@]45C[C@@]35CC[C@]21C)C(C)(C)O`, the IC50 in assay [1] is 91 nM; in assay [4], 3 µM. In addition, the Ratio IC50 in assay [2] was determined as 33.
